Laboratory results from ChEMBL document CHEMBL1141665, “Quantitative structure-activity relationship studies of a series of non-benzodiazepine structural ligands binding to benzodiazepine receptor” (Eur J Med Chem, 2008).

Assay: Displacement of [3H]diazepam from GABAA/BzR in rat brain membrane
Assay type: cell membranes

In order of falling pIC50:
1. O=C1C2C=Nc3ccccc3C2=NN1c1ccccc1 (centres undefined) [CGS-8216]  9.51
2. Cc1cc(-n2[nH]c3c(cnc4ccccc43)c2=O)cs1  9.35
3. Cc1cc(-n2nc3c4cc(F)ccc4[nH]cc-3c2=O)cs1  9.29
4. Cc1ccc2[nH]cc3c(=O)n(-c4csc(C)c4)nc-3c2c1  9.27
5. Cc1cc(-n2nc3c4cc(Cl)ccc4[nH]cc-3c2=O)cs1  9.06
6. Cc1cc(-n2[nH]c3c(cnc4cc(F)ccc43)c2=O)cs1  9.05
7. O=c1c2cnc3ccccc3c2[nH]n1-c1csc(Cl)c1  8.99
8. O=c1c2cnc3ccccc3c2[nH]n1-c1ccsc1  8.99
9. Cc1cc(-n2[nH]c3c(cnc4cc(Cl)ccc43)c2=O)cs1  8.96
10. O=C1C2C=Nc3ccccc3C2=NN1c1ccc(Cl)cc1 (centres undefined) [CGS-9896]  8.94
11. Cc1ccc2c(c1)ncc1c(=O)n(-c3csc(C)c3)[nH]c12  8.87
12. c1ccc2c(c1)[nH]c1c2ncc2[nH]c3ccccc3c21  8.4
13. O=[N+]([O-])c1ccc2[nH]c3c[nH]c4c5ccccc5nc-4c3c2c1  8.4
14. COC(=O)c1cc2c(cn1)[nH]c1ccccc12 [BETA-CCM]  8.3
15. Fc1ccc2[nH]c3c4c5ccccc5nc-4c[nH]c3c2c1  8.22
16. Brc1ccc2[nH]c3cnc4c5ccccc5[nH]c4c3c2c1  8.22
17. Oc1ccc2c(c1)[nH]c1c3c4ccccc4nc-3c[nH]c12  8.22
18. Fc1ccc2c(c1)[nH]c1c3c4ccccc4nc-3c[nH]c12  8.15
19. COc1ccc2c(c1)[nH]c1c2ncc2[nH]c3ccccc3c21  8.1
20. Cc1ccc2c(c1)[nH]c1c3c4ccccc4nc-3c[nH]c12  8.1
21. Clc1ccc2c(c1)[nH]c1c2ncc2[nH]c3ccccc3c21  8
22. Fc1cccc2c1[nH]c1c3c4ccccc4nc-3c[nH]c12  7.92
23. Brc1ccc2c(c1)[nH]c1c3c4ccccc4nc-3c[nH]c12  7.72
24. Brc1cccc2c1[nH]c1c3c4ccccc4nc-3c[nH]c12  7.55
25. Nc1ccc2[nH]c3c[nH]c4c5ccccc5nc-4c3c2c1  7.36
26. Clc1cc2c(cn1)[nH]c1ccccc12  7.35
27. Clc1cccc2c1[nH]c1c3c4ccccc4nc-3c[nH]c12  7.1
28. Cc1cccc2c1[nH]c1c3c4ccccc4nc-3c[nH]c12  7.08
29. Nc1ccc2[nH]c3c[nH]c4c5ccc(Cl)cc5nc-4c3c2c1  7.01
30. Oc1ccc2[nH]c3c4c5ccccc5nc-4c[nH]c3c2c1  6.94
31. COc1cc2c(cn1)[nH]c1ccccc12  6.91
32. O=[N+]([O-])c1cc2c3ccccc3nc-2c[nH]1  6.9
33. O=[N+]([O-])c1ccc2[nH]c3c[nH]c4c5ccc(Cl)cc5nc-4c3c2c1  6.9
34. Cn1c2ccccc2c2[nH]cc3nc4ccccc4c-3c21  6.8
35. Cc1ccc2[nH]c3c4c5ccccc5nc-4c[nH]c3c2c1  6.65
36. COc1cccc2[nH]c3c4c5ccccc5nc-4c[nH]c3c12  6.6
37. CCc1nc2c3ccccc3[nH]c2c2c1[nH]c1ccccc12  6.6
38. Cc1cc(-n2nc3c4ccccc4n(C)cc-3c2=O)cs1  6.52
39. Clc1ccc2[nH]c3c[nH]c4c5cccc(Cl)c5nc-4c3c2c1  6.51
40. Oc1cccc2[nH]c3c4c5ccccc5nc-4c[nH]c3c12  6.24
41. CCOC(=O)c1cc2c(cn1)Cc1ccccc1-2  6.17
42. Clc1cccc2[nH]c3c4c5ccccc5nc-4c[nH]c3c12  6.15
43. Brc1ccc2[nH]c3c4c5ccccc5nc-4c[nH]c3c2c1  6.12
44. COc1ccc2[nH]c3c4c5ccccc5nc-4c[nH]c3c2c1  6.05
45. Cn1c2ccccc2c2c3[nH]c4ccccc4c3ncc21  5.94
46. O=[N+]([O-])c1ccc2[nH]c3c[nH]c4c5cc(Cl)ccc5nc-4c3c2c1  5.92
47. c1ccc(Oc2ccc3[nH]c4c(ncc5[nH]c6ccccc6c54)c3c2)cc1  5.8
48. c1ccc2c(c1)[nH]c1cnccc12 [NORHARMANE]  5.79
49. CCOC(=O)c1cc2c(cn1)sc1ccccc12  5.77
50. Cn1c2ccccc2c2c1ccc1c3ccccc3n(C)c12  5.72
51. Clc1ccc2[nH]c3c4c5ccccc5nc-4c[nH]c3c2c1  5.67
52. Oc1cc2c3ccccc3nc-2c[nH]1  5.4
53. CCOC(=O)c1cc2c(cn1)oc1ccccc12  5.04
54. Cc1nccc2c1[nH]c1ccccc12 [HARMAN]  4.91
